Here are results for two compounds from publication PMC12040169 (PLOS Biology, 2025).

In data set [1] the target is T1, acyl-modification-free ctFabH (Chlamydia trachomatis, UniProt O84242).
T1 construct: gene fabH
T1 sequence (O84242 2-327): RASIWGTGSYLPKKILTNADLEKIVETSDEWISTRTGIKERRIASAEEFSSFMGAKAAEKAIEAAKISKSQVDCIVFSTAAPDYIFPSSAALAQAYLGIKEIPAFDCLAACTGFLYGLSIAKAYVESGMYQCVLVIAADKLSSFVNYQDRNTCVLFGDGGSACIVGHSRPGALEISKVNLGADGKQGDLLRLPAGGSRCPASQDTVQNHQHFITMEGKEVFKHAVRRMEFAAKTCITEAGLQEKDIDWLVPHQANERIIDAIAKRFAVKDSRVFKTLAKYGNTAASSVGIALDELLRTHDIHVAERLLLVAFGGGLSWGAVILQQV
Kind of data set: intact protein LC/MS. The class given is biochemical. The following applies: covalent acyl-enzyme intermediate; 10 µM protein, 50 µM acyl-CoA, pH 7.0.

Data set [2] has as its system T2, C. trachomatis L2/434/Bu expressing GFP (CTL2-GFP).
T2 construct: L2/434/Bu GFP intracellular growth in HeLa cells
Kind of data set: microbe, parasite or virus in culture. Also noted: species or system HeLa; C. trachomatis total inclusion area by high-content imaging, normalised to DMSO. To be noted: Chlamydia trachomatis, 28.5 h; read-out: MIC (µM), total inclusion area. The source says: We screened a library of 36,785 small molecules displaying drug-like properties and covering a wide chemical space (Fig 1A and S2A Data). In this process, we also complemented the assay described above with an imaging-based readout (Fig 1B). After measurements of bulk GFP and resorufin fluorescence, cells were fixed, stained with the DNA dye Hoechst, and imaged at a high-content imaging platform to detect chlamydial inclusions (GFP) and host cell nuclei (Hoechst). The total area and number of inclusions in individual wells and the number of nuclei then served as additional proxies for chlamydial growth and host cell viability. […] MICs were calculated as described above.

Data set [3] deals with T3, L. crispatus.
T3 construct: DSM 20584
Description: microbe, parasite or virus in culture. Also noted: Microbial growth in liquid dilution assay, OD600 relative to DMSO control. To be noted: Lactobacillus crispatus; estimated IC50; read-out: L. crispatus, IC50 (µM) estimate.

For data set [4], the target named is T1, acyl-modification-free ctFabH. Kind of data set: intact protein LC/MS; MS/MS of tryptic peptides. The data set is classed as binding. To be noted: covalent; active site cysteine; 10 µM protein, 50 µM compound, pH 7.0, 10 min to 1 h.
In data set [5] the test system is T2, C. trachomatis L2/434/Bu expressing GFP (CTL2-GFP). Kind of data set: microbe, parasite or virus in culture. More on the design: C. trachomatis total inclusion area by high-content imaging, normalised to DMSO. The following applies: Chlamydia trachomatis, HeLa, 28.5 h; read-out: IC50 (µM), total inclusion area. In a few lines:
(§1)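 After bulk GFP and resorufin reads, fixed cells were Hoechst-stained and imaged to count chlamydial inclusions and host nuclei. Total inclusion area and number tracked bacterial growth, and nuclei number tracked host viability. MICs were derived, and 36,785 drug-like molecules were screened this way.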

For data set [6] the test system is unchanged. Description: microbe, parasite or virus in culture. More on the design: C. trachomatis GFP growth in infected HeLa cells, bulk GFP fluorescence normalised to DMSO. The following applies: Chlamydia trachomatis, HeLa, 26 h; read-out: IC50 (µM), bulk GFP fluorescence. Here is the method: (§2) MICs were calculated as described above.
Data set [7] deals with T4, L. iners.
T4 construct: DSM 13335
Description: organism not typed. More on the design: Microbial growth in liquid dilution assay, OD600 relative to DMSO control. The following applies: estimated IC50; read-out: L. iners, IC50 (µM) estimate.

The test system of data set [8] is T5, B. thetaiotaomicron.
T5 construct: DSM 2079
Description: microbe, parasite or virus in culture. More on the design: Microbial growth in liquid dilution assay, OD600 relative to DMSO control. To be noted: Bacteroides thetaiotaomicron; estimated IC50; read-out: B. thetaiotaomicron, IC50 (µM) estimate. In outline: (§3)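 Commensal strains were grown with compounds in a dilution assay, with 30 µM among the concentrations used. A wider panel of gut bacteria was tested by radial diffusion, with 24–48 h compound exposure before growth inhibition zones were measured.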

Data set [9] deals with T6, E. coli.
T6 construct: DSM 301
Description: microbe, parasite or virus in culture. Also noted: Microbial growth in liquid dilution assay, OD600 relative to DMSO control. The following applies: Escherichia coli; estimated IC50; read-out: E. coli, IC50 (µM) estimate. In outline: as §3

The subject of data set [10] is T7, E. faecalis.
T7 construct: DSM 20478
Kind of data set: microbe, parasite or virus in culture. Also noted: Microbial growth in liquid dilution assay, OD600 relative to DMSO control. To be noted: Enterococcus faecalis; estimated IC50; read-out: E. faecalis, IC50 (µM) estimate. In outline:
as §3

Data set [11] concerns T8, L. reuteri.
T8 construct: DSM 20016
Kind of data set: microbe, parasite or virus in culture. Also noted: Microbial growth in liquid dilution assay, OD600 relative to DMSO control. The following applies: Limosilactobacillus reuteri; estimated IC50; read-out: L. reuteri, IC50 (µM) estimate. In a few lines: as §3

The subject of data set [12] is T9, B. adolescentis.
T9 construct: DSM 20083
Description: microbe, parasite or virus in culture. To be noted: Bifidobacterium adolescentis; estimated IC50; read-out: B. adolescentis, IC50 (µM) estimate. Also noted: Microbial growth in liquid dilution assay, OD600 relative to DMSO control. In a few lines: as §3

Data set [13] deals with T10, C. albicans.
T10 construct: DSM 1577
Kind of data set: microbe, parasite or virus in culture. Also noted: Microbial growth in liquid dilution assay, OD600 relative to DMSO control. To be noted: Candida albicans, read-out: C. albicans, IC50 (µM) estimate.

For data set [14], the system named is T11, G. vaginalis.
T11 construct: DSM 4944
Kind of data set: microbe, parasite or virus in culture. More on the design: Microbial growth in liquid dilution assay, OD600 relative to DMSO control. The following applies: Gardnerella vaginalis, read-out: G. vaginalis, IC50 (µM) estimate.

The subject of data set [15] is T12, CTL2-GFP (C. trachomatis L2/434/Bu, GFP-expressing).
T12 construct: L2/434/Bu, GFP-expressing
Kind of data set: microbe, parasite or virus in culture. To be noted: Chlamydia trachomatis, HeLa, 28.5 h; mean of GFP and inclusion area. Also noted: C. trachomatis growth in HeLa, dose-response, mean of bulk GFP fluorescence and imaged total inclusion area. In outline: as §1

Data set [16] has the same test system. Kind of data set: microbe, parasite or virus in culture. Also noted: species or system HeLa; C. trachomatis growth in HeLa, dose-response, mean of bulk GFP fluorescence and imaged total inclusion area. The following applies: Chlamydia trachomatis, 28.5 h; mean of GFP and inclusion area. In a few lines:
as §1

Data set [17] relates to T2, C. trachomatis L2/434/Bu expressing GFP (CTL2-GFP). Description: microbe, parasite or virus in culture. More on the design: species or system HeLa; C. trachomatis GFP growth in infected HeLa cells, bulk GFP fluorescence normalised to DMSO. The following applies: Chlamydia trachomatis, 26 h; read-out: MIC (µM), bulk GFP fluorescence. As for the experimental part:
as §2

Data set [18] addresses T13, ctFabH (CTL2 FabH), His6(-fMet)SG-ctFabH (Chlamydia trachomatis, UniProt O84242).
T13 construct: synthetic gene, modified pRSF-Duet1, E. coli host; partly acylated (mainly pentanoyl) as purified
T13 sequence (O84242 2-327): T1 sequence (O84242 2-327)
Kind of data set: continuous UV assay of acetoacetyl-CoA at […] nm. To be noted: covalent; 20 µM enzyme, 30 µM compound, 100 µM acetyl-CoA, 100 µM malonyl-CoA, pH 8.0, 25 °C, 50 mM MgCl2; with or without CoA preincubation. The data set is classed as biochemical.

Data set [19] can be described thus: in vitro. Also noted: Viability of infected HeLa host cells, resazurin conversion, bulk resorufin fluorescence relative to DMSO. The following applies: human, hela cells; bulk resorufin, mean of 3.

Structures are written as SMILES. Values after ≈ are worked out from the molar mass of the structure shown. Read-outs that look alike come from different tables or passages of the source. Where only a bound is given, the exact number is not on record here.

For the compound `CC[C@H](C)C(=O)SCCNC(=O)CCNC(=O)[C@H](O)C(C)(C)COP(=O)(O)OP(=O)(O)OC[C@H]1O[C@@H](n2cnc3c(N)ncnc32)[C@H](O)[C@@H]1OP(=O)(O)O` [2-methylbutyryl-CoA], the “intact protein LC/MS” value in data set [1] is recorded as “incubation of this stripped ctFabH with 2-methylbutyryl-CoA or isovaleryl-CoA”.
`O=C1Oc2nc3ccccc3cc2CN1C1CC1` [c1e]: the MIC in data set [2] is 0.046 µM (≈ 0.0111 µg/mL); in [16], 0.042 µM (≈ 0.0101 µg/mL); in data set [17], 0.038 µM (≈ 0.00913 µg/mL). The IC50 (commonly the concentration that gives 50% inhibition) in data set [3] was above 30 µM; in [5], 0.0199 µM; in data set [6], 0.0226 µM; in data set [7], above 30 µM; in data set [8] it was above 30 µM; in data set [9] it was above 30 µM. For the same compound, the concentration for half-maximal inhibition (IC50) in data set [10] was above 30 µM; in data set [11], above 30 µM; in data set [12] it was above 30 µM; in data set [13] it was above 30 µM; in data set [14], above 30 µM; in data set [15], 0.0213 µM. Besides, the “intact protein LC/MS; MS/MS of tryptic peptides” value in data set [4] was “incubation with c1e generated an FabH-c1e adduct”. Besides, the inhibition entry in data set [18] is given as “c1e displayed inhibitory activity towards ctFabH when added at about equimolar concentration”. Moreover, the viability (as a rule, a read-out of living cells in per cent, often relative to untreated cells) at 28.5 h, 0.000416667 µM in data set [19] came to 95.3%. Moreover, in [19], the viability at 28.5 h, 0.00125 µM was 82.8%. Also, the viability at 28.5 h, 0.00375 µM in [19] was found to be 88.7%. The viability at 28.5 h, 0.0123333 µM in [19] was 87.6%. Moreover, in [19], the viability at 28.5 h, 0.037 µM stood at 93.9%. Moreover, in [19], the viability at 28.5 h, 0.111 µM stood at 89.2%. Moreover, the viability at 28.5 h, 0.333 µM in data set [19] is 91.7%. Moreover, the viability at 28.5 h, 1 µM in data set [19] was found to be 89.5%. Further, the viability at 28.5 h, 3 µM in data set [19] amounted to 98.2%. Besides, the viability at 28.5 h, 10 µM in data set [19] was determined as 103%. Besides, in data set [19], the viability at 28.5 h, 30 µM worked out at 46.5%.
